Where a name gives a salt, the structure may show the parent alone.
Assays:
[1] = tested on: NrF2 (Nuclear factor (erythroid-derived 2)-like 2); assay: NrF2 activation in a whole cell nuclear translocation assay; type: cell-based
Method: Compounds are tested in a NrF2 (Nuclear factor (erythroid-derived 2)-like 2) translocation assay by adapting the methods set forth in U.S. Pat. No. 8,101,373, the disclosure of which is incorporated herein by reference. A result of NrF2 activation in the assay by the present compounds is an indication of their anti-inflammatory activity. […] In addition to monomethyl fumarate and dimethyl fumarate, bardoxolone methyl may be used as a positive control.

[2] = Glutathione depletion assay (Michael addition to reduced glutathione, followed by 1H NMR); type: physicochemical; settings: 2 equiv. reduced glutathione, d6-DMSO, 35° C.
From the text: See, for example, Lehmann et al. Dimethyfumarate Induces Immunosuppression via Glutathione Depletion and Subsequent Induction of Heme Oxygenase 1, Journal of Investigative Dermatology (2007) 127, 835-845. Accordingly, the present compounds may be assessed in vitro by reaction with glutathione as follows:
(with the top securely fastened).
In all the above cases, dis-appearance of the alkene proton signals from the starting material are used to determine the extent of Michael reaction with glutathione.
As would be understood by those of skill in the art, the above experiments can be repeated by varying the equivalents of reduced glutathione (0.5 to 2 equivalents); the reactions can also be run in a mixture of d6-DMSO and D2O; and the temperature of the reaction can also be varied from room temperature to 35° C. (35° C. being used to mimic body temperature). As used herein “majority reaction” means a greater than 50% reduction in alkene proton signal as observed by ^1H NMR.

[3] = tested on: experimental autoimmune encephalomyelitis (EAE); assay: Experimental autoimmune encephalomyelitis (EAE) animal model; type: in vivo, mice; settings: dosed at 60 mg/kg beginning on the day of immunization

Row | EC50 [1] | SMILES | time to majority reaction with glutathione (greater than 50% reduction in alkene proton signal by 1H NMR) [2] | onset of disease paralysis [3]
1 | ~127 µM | COC(=O)/C=C/C(=O)O [Monomethyl fumarate, monomethylfumarate] | – | –
2 | – | COC(=O)/C=C/n1nnn(C)c1=O [methyl (E)-3-(4-methyl-5-oxo-4,5-dihydro-1H-tetrazol-1-yl)acrylate] | ≤ 30 h | –
3 | – | COC(=O)/C=C/n1nn[nH]c1=O [methyl (E)-3-(5-oxo-4,5-dihydro-1H-tetrazol-1-yl)acrylate] | ≤ 30 h | significantly prevents the onset of disease paralysis

Reference: patent US9845311B2, “Nrf2 activating compounds and uses thereof” (RIGEL PHARMACEUTICALS, INC., priority 2016, dated 2017)
